In patent publication US12161621B2, “Methods for fructokinase mediation of alcohol craving and alcohol induced liver disease” (REGENTS OF THE UNIVERSITY OF COLORADO, A BODY CORPORATE, priority 2018, dated 2024):

System: wild type mice
Assay: two-bottle choice alcohol preference with fructokinase inhibitor
Assay type: in vivo
Conditions: wild type mice on 10 percent alcohol vs water, fructokinase inhibitor administered for 4 weeks, FIG. 2G
Excerpt: FIG. 2C provides delta FosB expression and densitometry in nucleus accumbens (Nacc) of wild type mice exposed to 0%, 3%, 6% and 10% alcohol for 10 weeks. FIG. 2D includes delta FosB expression and densitometry in nucleus accumbens (Nacc) of wild type and fructokinase knockout mice exposed to 10% alcohol for 10 weeks. […] FIG. 2F provides evidence of conditioned place preference in wild type and fructokinase knockout mice injected alcohol (2 g/kg). Data represents preference shifts for the paired section after vs before conditioning (time spent in the paired chamber posttest-pretest). […] One Way ANOVA with Tukey post hoc analysis; n=5 mice per group. Further evidence that KHK may mediate alcohol preference is shown by a conditioned place preference study, in which mice are injected with either alcohol or saline then placed in a distinctly different section of the apparatus for 4 alcohol and 4 saline trials. The mice were then tested in an alcohol-free state to determine whether they preferred the section of the apparatus that was paired with alcohol. […] It was also determined that preference for alcohol could be blocked by administering a fructokinase inhibitor (i.e., osthol) for 4 weeks to wild type mice on 10 percent alcohol. […] Thus, these studies show the novel finding that blocking fructokinase can block the craving for alcohol.

COc1ccc2ccc(=O)oc2c1CC=C(C)C [osthol]
reduced preference for alcohol in a two bottle preference system: 50%
